Patent publication US10906890B2, “Triazole phenyl compounds as agonists of the APJ receptor” (AMGEN INC., priority 2016, dated 2021)

Molecular target: human APJ receptor (Homo sapiens (Human), UniProt P35414)
Assay: [35S]GTPγS binding assay on membranes from CHO cells stably expressing human APJ receptor
Type: biochemical
Conditions: means of several independent experiments, read-out: Activity hAPJ SPA EC50 IP
Method: The human APJ receptor was cloned by polymerase chain reaction and the gene encoding the receptor was subcloned in pFLAG-CMV™-3 expression vector (Sigma, Saint Louis, Mo. USA) in-house at Amgen. A GTPγS binding assay was performed on membranes prepared from CHO cells stably expressing human APJ receptor. The optimum experimental conditions for the concentrations of GDP, MgCl2, and NaCl in the assay buffer were initially determined. […] Incubation was at RT for 90 min and the microplate was read using a ViewLux™ ultra HTS Microplate Imager (PerkinElmer, Inc.). All the results presented are means of several independent experiments and analyzed by non-linear regression methods using the commercially available program Prism (GraphPad, San Diego, Calif.) providing the EC50 values detailed in Table 28.

Chain of human APJ receptor (P35414 whole entry): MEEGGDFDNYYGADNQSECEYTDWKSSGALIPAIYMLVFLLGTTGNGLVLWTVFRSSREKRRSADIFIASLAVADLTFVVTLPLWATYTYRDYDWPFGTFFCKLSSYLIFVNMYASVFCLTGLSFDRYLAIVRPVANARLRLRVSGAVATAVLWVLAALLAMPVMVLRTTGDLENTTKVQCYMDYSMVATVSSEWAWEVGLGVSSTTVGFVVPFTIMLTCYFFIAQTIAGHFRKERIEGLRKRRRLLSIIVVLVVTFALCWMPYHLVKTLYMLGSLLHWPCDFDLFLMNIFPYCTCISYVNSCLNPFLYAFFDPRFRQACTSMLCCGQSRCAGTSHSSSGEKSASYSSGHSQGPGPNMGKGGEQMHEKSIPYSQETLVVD

COc1cccc(OC)c1-n1c(NS(=O)(=O)[C@H]2C[C@@H](O)CN(c3ncc(F)cn3)C2)nnc1-c1ccccc1 (mixture of isomers) [Example 53.0, (3R,5S)-N-(4-(2,6-dimethoxyphenyl)-5-phenyl-4H-1,2,4-triazol-3-yl)-1-(5-fluoro-2-pyrimidinyl)-5-hydroxy-3-piperidinesulfonamide and (3S,5R)-N-(4-(2,6-dimethoxyphenyl)-5-phenyl-4H-1,2,4-triazol-3-yl)-1-(5-fluoro-2-pyrimidinyl)-5-hydroxy-3-piperidinesulfonamide]
EC50: 4.9 nM

COc1cccc(OC)c1-n1c(NS(=O)(=O)[C@@H](C)[C@H](OC)c2ncc(C)cn2)nnc1-c1cccc([C@](C)(O)C(F)(F)F)c1 (mixture of isomers) [Example 88.0, (1R,2S)—N-(4-(2,6-Dimethoxyphenyl)-5-(3-((1S)-2,2,2-trifluoro-1-hydroxy-1-methylethyl)phenyl)-4H-1,2,4-triazol-3-yl)-1-methoxy-1-(5-methyl-2-pyrimidinyl)-2-propanesulfonamide and (1R,2S)—N-(4-(2,6-dimethoxyphenyl)-5-(3-((1R)-2,2,2-trifluoro-1-hydroxy-1-methylethyl)phenyl)-4H-1,2,4-triazol-3-yl)-1-methoxy-1-(5-methyl-2-pyrimidinyl)-2-propanesulfonamide]
EC50: 23 nM

COc1cccc(OC)c1-n1c(NS(=O)(=O)[C@@H](C)Cc2ncc(F)cn2)nnc1-c1ccccc1 (single isomer, unassigned) [Example 8.0, (2S)-N-(4-(2,6-dimethoxyphenyl)-5-phenyl-4H-1,2,4-triazol-3-yl)-1-(5-fluoro-2-pyrimidinyl)-2-propanesulfonamide or (2R)-N-(4-(2,6-dimethoxyphenyl)-5-phenyl-4H-1,2,4-triazol-3-yl)-1-(5-fluoro-2-pyrimidinyl)-2-propanesulfonamide]
EC50: 15 nM

COc1ncnc(OC)c1-n1c(NS(=O)(=O)[C@@H](C)Cc2ncc(F)cn2)nnc1-c1ccccc1 (single isomer, unassigned) [Example 9.0, (2S)-N-(4-(4,6-dimethoxy-5-pyrimidinyl)-5-phenyl-4H-1,2,4-triazol-3-yl)-1-(5-fluoro-2-pyrimidinyl)-2-propanesulfonamide or (2R)-N-(4-(4,6-dimethoxy-5-pyrimidinyl)-5-phenyl-4H-1,2,4-triazol-3-yl)-1-(5-fluoro-2-pyrimidinyl)-2-propanesulfonamide]
EC50: 40 nM

COc1ncnc(OC)c1-n1c(NS(=O)(=O)[C@@H](C)Cc2ncc(F)cn2)nnc1-c1ccccc1 (single isomer, unassigned) [Example 11.0, (2S)-N-(4-(4,6-dimethoxy-5-pyrimidinyl)-5-phenyl-4H-1,2,4-triazol-3-yl)-1-(5-fluoro-2-pyrimidinyl)-2-propanesulfonamide or (2R)-N-(4-(4,6-dimethoxy-5-pyrimidinyl)-5-phenyl-4H-1,2,4-triazol-3-yl)-1-(5-fluoro-2-pyrimidinyl)-2-propanesulfonamide]
EC50: 6.4 nM

COc1cccc(OC)c1-n1c(NS(=O)(=O)[C@H]2CCCN(c3ncc(F)cn3)C2)nnc1-c1ccccc1 (single isomer, unassigned) [Example 21.0, (3S)—N-(4-(2,6-Dimethoxyphenyl)-5-phenyl-4H-1,2,4-triazol-3-yl)-1-(5-fluoro-2-pyrimidinyl)-3-piperidinesulfonamide or (3R)—N-(4-(2,6-dimethoxyphenyl)-5-phenyl-4H-1,2,4-triazol-3-yl)-1-(5-fluoro-2-pyrimidinyl)-3-piperidinesulfonamide]
EC50: 7.3 nM

COc1cccc(OC)c1-n1c(NS(=O)(=O)[C@H]2CCCN(c3ncc(F)cn3)C2)nnc1-c1ccccc1 (single isomer, unassigned) [Example 22.0, (3S)—N-(4-(2,6-dimethoxyphenyl)-5-phenyl-4H-1,2,4-triazol-3-yl)-1-(5-fluoro-2-pyrimidinyl)-3-piperidinesulfonamide or (3R)—N-(4-(2,6-dimethoxyphenyl)-5-phenyl-4H-1,2,4-triazol-3-yl)-1-(5-fluoro-2-pyrimidinyl)-3-piperidinesulfonamide]
EC50: 170 nM

COc1ccnc(OC)c1-n1c(NS(=O)(=O)[C@@H](C)[C@H](OC)c2ncc(C)cn2)nnc1-c1ccccc1 (single isomer, unassigned) [Example 23.0, (1R,2S,P)-N-(4-(2,4-dimethoxy-3-pyridinyl)-5-phenyl-4H-1,2,4-triazol-3-yl)-1-methoxy-1-(5-methyl-2-pyrimidinyl)-2-propanesulfonamide or (1R,2S,M)-N-(4-(2,4-dimethoxy-3-pyridinyl)-5-phenyl-4H-1,2,4-triazol-3-yl)-1-methoxy-1-(5-methyl-2-pyrimidinyl)-2-propanesulfonamide]
EC50: 5.9 nM

COc1ccnc(OC)c1-n1c(NS(=O)(=O)[C@@H](C)[C@H](OC)c2ncc(C)cn2)nnc1-c1ccccc1 (single isomer, unassigned) [Example 24.0, (1R,2S,P)-N-(4-(2,4-dimethoxy-3-pyridinyl)-5-phenyl-4H-1,2,4-triazol-3-yl)-1-methoxy-1-(5-methyl-2-pyrimidinyl)-2-propanesulfonamide or (1R,2S,M)-N-(4-(2,4-dimethoxy-3-pyridinyl)-5-phenyl-4H-1,2,4-triazol-3-yl)-1-methoxy-1-(5-methyl-2-pyrimidinyl)-2-propanesulfonamide]
EC50: 0.27 nM

COc1ncnc(OC)c1-n1c(NS(=O)(=O)[C@H]2CCCN(c3ncc(F)cn3)C2)nnc1-c1ccccc1 (single isomer, unassigned) [Example 27.0, (3S)-N-(4-(4,6-dimethoxy-5-pyrimidinyl)-5-phenyl-4H-1,2,4-triazol-3-yl)-1-(5-fluoro-2-pyrimidinyl)-3-piperidinesulfonamide or (3R)-N-(4-(4,6-dimethoxy-5-pyrimidinyl)-5-phenyl-4H-1,2,4-triazol-3-yl)-1-(5-fluoro-2-pyrimidinyl)-3-piperidinesulfonamide]
EC50: 32 nM

COc1ncnc(OC)c1-n1c(NS(=O)(=O)[C@H]2CCCN(c3ncc(F)cn3)C2)nnc1-c1ccccc1 (single isomer, unassigned) [Example 28.0, (3S)-N-(4-(4,6-dimethoxy-5-pyrimidinyl)-5-phenyl-4H-1,2,4-triazol-3-yl)-1-(5-fluoro-2-pyrimidinyl)-3-piperidinesulfonamide or (3R)-N-(4-(4,6-dimethoxy-5-pyrimidinyl)-5-phenyl-4H-1,2,4-triazol-3-yl)-1-(5-fluoro-2-pyrimidinyl)-3-piperidinesulfonamide]
EC50: 410 nM

COc1ncnc(OC)c1-n1c(NS(=O)(=O)[C@H]2CCCN(c3ncc(C)cn3)C2)nnc1-c1ccccc1 (single isomer, unassigned) [Example 29.0, (S)—N-(4-(4,6-Dimethoxypyrimidin-5-yl)-5-phenyl-4H-1,2,4-triazol-3-yl)-1-(5-methylpyrimidin-2-yl)piperidine-3-sulfonamide or (R)—N-(4-(4,6-dimethoxypyrimidin-5-yl)-5-phenyl-4H-1,2,4-triazol-3-yl)-1-(5-methylpyrimidin-2-yl)piperidine-3-sulfonamide]
EC50: 390 nM

COc1ncnc(OC)c1-n1c(NS(=O)(=O)[C@H]2CCCN(c3ncc(C)cn3)C2)nnc1-c1ccccc1 (single isomer, unassigned) [Example 30.0, (S)—N-(4-(4,6-Dimethoxypyrimidin-5-yl)-5-phenyl-4H-1,2,4-triazol-3-yl)-1-(5-methylpyrimidin-2-yl)piperidine-3-sulfonamide or (R)—N-(4-(4,6-dimethoxypyrimidin-5-yl)-5-phenyl-4H-1,2,4-triazol-3-yl)-1-(5-methylpyrimidin-2-yl)piperidine-3-sulfonamide]
EC50: 100 nM

COc1ncnc(OC)c1-n1c(NS(=O)(=O)[C@H]2CCCN(c3ncc(Cl)cn3)C2)nnc1-c1ccccc1 (single isomer, unassigned) [Example 31.0, (3S)-1-(5-chloro-2-pyrimidinyl)-N-(4-(4,6-dimethoxy-5-pyrimidinyl)-5-phenyl-4H-1,2,4-triazol-3-yl)-3-piperidinesulfonamide or (3R)-1-(5-chloro-2-pyrimidinyl)-N-(4-(4,6-dimethoxy-5-pyrimidinyl)-5-phenyl-4H-1,2,4-triazol-3-yl)-3-piperidinesulfonamide]
EC50: 340 nM

COc1ncnc(OC)c1-n1c(NS(=O)(=O)[C@H]2CCCN(c3ncc(Cl)cn3)C2)nnc1-c1ccccc1 (single isomer, unassigned) [Example 32.0, (3S)-1-(5-chloro-2-pyrimidinyl)-N-(4-(4,6-dimethoxy-5-pyrimidinyl)-5-phenyl-4H-1,2,4-triazol-3-yl)-3-piperidinesulfonamide or (3R)-1-(5-chloro-2-pyrimidinyl)-N-(4-(4,6-dimethoxy-5-pyrimidinyl)-5-phenyl-4H-1,2,4-triazol-3-yl)-3-piperidinesulfonamide]
EC50: 17 nM

COc1cccc(OC)c1-n1c(NS(=O)(=O)[C@H]2CCCN(c3ncc(Cl)cn3)C2)nnc1-c1ccccc1 (single isomer, unassigned) [Example 34.0, (S)-1-(5-Chloropyrimidin-2-yl)-N-(4-(2,6-dimethoxyphenyl)-5-phenyl-4H-1,2,4-triazol-3-yl)piperidine-3-sulfonamide or (R)-1-(5-chloropyrimidin-2-yl)-N-(4-(2,6-dimethoxyphenyl)-5-phenyl-4H-1,2,4-triazol-3-yl)piperidine-3-sulfonamide]
EC50: 28 nM

COc1cccc(OC)c1-n1c(NS(=O)(=O)[C@H]2CCCN(c3ncc(Cl)cn3)C2)nnc1-c1ccccc1 (single isomer, unassigned) [Example 35.0, (S)-1-(5-Chloropyrimidin-2-yl)-N-(4-(2,6-dimethoxyphenyl)-5-phenyl-4H-1,2,4-triazol-3-yl)piperidine-3-sulfonamide or (R)-1-(5-chloropyrimidin-2-yl)-N-(4-(2,6-dimethoxyphenyl)-5-phenyl-4H-1,2,4-triazol-3-yl)piperidine-3-sulfonamide]
EC50: 280 nM
